In test [1] the target is T1, baculovirus-expressed ALK (Homo sapiens, UniProt Q9UM73).
T1 construct: host or cells: baculovirus expression system
Put plainly: ALK Kinase Assay (ELISA-type, time-resolved fluorescence). The class given is biochemical. The note with it: ALK kinase inhibition, 1 μM ATP; read-out: ALK Activity. An outline of the steps:
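Plates coated with phospholipase C-γ substrate (10 μg/mL in TBS); reaction started with 30 ng/ml ALK and run 15 min at 37° C. Phosphorylated substrate detected with Eu-N1-labeled PT66 antibody. IC50 from sigmoidal variable-slope fit of percent inhibition vs log concentration.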

Test [2] concerns the target T2, c-Met (cytoplasmic domain) (Homo sapiens, UniProt P08581).
T2 construct: 10 ng/mL c-Met (cytoplasmic domain, Invitrogen Corporation #PV3143); purchased Invitrogen Corporation PV3143
Put plainly: c-Met Kinase Assay (same methods as for ALK, with modifications). The class given is biochemical. The note with it: c-Met kinase inhibition, 1 μM ATP; read-out: cMet Activity. An outline of the steps:
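Europium-labeled PT66 antibody (Eu-N1) detects substrate phosphorylation on wells coated with phospholipase C-γ at 10 μg/mL. The kinase, the cytoplasmic domain of c-Met at 10 ng/mL, starts the reaction, which proceeds 15 minutes at 37° C.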

A value given as a limit tells only on which side of the number the result lay.

Data on 16 compounds can be found in US8148391B2 (Cephalon, Inc., priority 2006, dated 2012).

T2 sequence (P08581 956-1390 limits assumed): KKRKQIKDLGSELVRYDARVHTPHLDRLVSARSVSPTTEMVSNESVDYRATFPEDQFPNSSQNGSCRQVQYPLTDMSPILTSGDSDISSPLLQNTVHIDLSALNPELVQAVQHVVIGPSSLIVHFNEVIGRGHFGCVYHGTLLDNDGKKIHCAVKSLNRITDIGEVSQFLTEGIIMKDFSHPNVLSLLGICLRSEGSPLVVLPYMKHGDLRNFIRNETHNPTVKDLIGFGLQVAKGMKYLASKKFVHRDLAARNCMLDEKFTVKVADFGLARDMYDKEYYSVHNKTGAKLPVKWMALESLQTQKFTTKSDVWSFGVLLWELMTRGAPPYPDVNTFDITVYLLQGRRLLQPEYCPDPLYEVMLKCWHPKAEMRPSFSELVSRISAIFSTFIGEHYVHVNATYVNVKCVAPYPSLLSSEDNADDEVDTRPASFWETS
T1 sequence (Q9UM73 19-1620): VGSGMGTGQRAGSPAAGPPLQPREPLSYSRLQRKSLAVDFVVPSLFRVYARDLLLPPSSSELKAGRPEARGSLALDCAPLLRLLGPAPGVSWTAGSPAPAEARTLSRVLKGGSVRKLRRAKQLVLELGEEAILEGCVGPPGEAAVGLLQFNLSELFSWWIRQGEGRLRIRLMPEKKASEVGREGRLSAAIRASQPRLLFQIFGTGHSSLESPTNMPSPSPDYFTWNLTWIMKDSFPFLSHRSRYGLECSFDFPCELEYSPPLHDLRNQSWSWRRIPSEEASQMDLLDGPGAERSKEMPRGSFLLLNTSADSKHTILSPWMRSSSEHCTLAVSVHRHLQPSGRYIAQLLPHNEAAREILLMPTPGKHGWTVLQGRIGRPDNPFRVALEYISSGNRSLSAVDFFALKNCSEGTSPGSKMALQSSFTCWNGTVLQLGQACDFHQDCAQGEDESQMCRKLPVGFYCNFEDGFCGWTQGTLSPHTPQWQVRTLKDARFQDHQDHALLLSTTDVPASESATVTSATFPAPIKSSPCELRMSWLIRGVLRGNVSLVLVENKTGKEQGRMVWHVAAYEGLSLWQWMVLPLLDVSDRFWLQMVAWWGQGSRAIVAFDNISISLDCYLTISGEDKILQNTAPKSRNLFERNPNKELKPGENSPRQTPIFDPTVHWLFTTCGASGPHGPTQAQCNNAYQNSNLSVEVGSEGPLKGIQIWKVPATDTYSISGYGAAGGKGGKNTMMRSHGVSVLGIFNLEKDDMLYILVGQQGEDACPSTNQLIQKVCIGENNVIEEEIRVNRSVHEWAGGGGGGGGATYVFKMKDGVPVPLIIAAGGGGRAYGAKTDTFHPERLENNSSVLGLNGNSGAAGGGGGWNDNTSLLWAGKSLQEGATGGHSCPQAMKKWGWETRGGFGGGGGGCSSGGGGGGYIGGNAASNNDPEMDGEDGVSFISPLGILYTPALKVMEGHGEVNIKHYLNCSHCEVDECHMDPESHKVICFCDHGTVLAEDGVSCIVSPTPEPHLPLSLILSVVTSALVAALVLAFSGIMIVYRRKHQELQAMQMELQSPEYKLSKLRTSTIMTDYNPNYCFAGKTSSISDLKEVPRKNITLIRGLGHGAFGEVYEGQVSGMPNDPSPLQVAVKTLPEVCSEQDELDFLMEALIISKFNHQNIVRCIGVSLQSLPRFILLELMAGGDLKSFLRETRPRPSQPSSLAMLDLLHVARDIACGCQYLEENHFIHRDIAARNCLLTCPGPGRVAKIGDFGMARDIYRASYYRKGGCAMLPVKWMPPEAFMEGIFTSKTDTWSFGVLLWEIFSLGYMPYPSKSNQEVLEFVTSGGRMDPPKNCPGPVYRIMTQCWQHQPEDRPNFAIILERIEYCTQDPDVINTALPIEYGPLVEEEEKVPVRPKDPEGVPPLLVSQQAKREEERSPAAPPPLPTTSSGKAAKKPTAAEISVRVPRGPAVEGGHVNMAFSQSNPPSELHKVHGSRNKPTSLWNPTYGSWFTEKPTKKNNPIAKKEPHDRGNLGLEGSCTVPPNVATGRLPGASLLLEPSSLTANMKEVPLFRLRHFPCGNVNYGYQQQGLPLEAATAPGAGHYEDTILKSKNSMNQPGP

`CCN1C(=O)C(NC(=O)COC)CC(C)(C)c2ccc(Nc3ncc(Cl)c(Nc4c(F)cccc4C(=O)NC)n3)cc21` (centres unmarked) [Example 1644, 2-{5-Chloro-2-[1-ethyl-3-(2-methoxy-acetylamino)-5,5-dimethyl-2-oxo-2,3,4,5-tetrahydro-1H-benzo[b]azepin-8-ylamino]-pyrimidin-4-ylamino}-3-fluoro-N-methyl-benzamide]: the IC50 in test [1] is 100 to 1000 nM; in test [2] it was less than 100 nM.
The corresponding values for `COc1cc2c(cc1Nc1ncc(Cl)c(N[C@@H]3CCCC[C@H]3NS(C)(=O)=O)n1)NC(=O)CN(Cc1ccccc1)C2` [Example 1651, N-{(1R,2R)-2-[2-(4-Benzyl-7-methoxy-2-oxo-2,3,4,5-tetrahydro-1H-benzo[e][1,4]diazepin-8-ylamino)-5-chloro-pyrimidin-4-ylamino]-cyclohexyl}-methanesulfonamide] are less than 100 nM and greater than 10000 nM.
In the same order, the values of `COc1cc2c(cc1Nc1ncc(Cl)c(NC3C4C=CC(C4)C3C(N)=O)n1)NC(=O)CN(Cc1ccccc1)C2` (centres unmarked) [Example 1652, 3-[2-(4-Benzyl-7-methoxy-2-oxo-2,3,4,5-tetrahydro-1H-benzo[e][1,4]diaz-epin-8-ylamino)-5-chloro-pyrimidin-4-ylamino]-bicyclo[2.2.1]hept-5-ene-2-carboxylic acid amide] are less than 100 nM and greater than 10000 nM.
In the same order, the values of `CCNC(=O)c1ccccc1Nc1nc(Nc2cc3c(cc2OC)CN(Cc2ccccc2)CC(=O)N3)ncc1Cl` [Example 1653, 2-[2-(4-Benzyl-7-methoxy-2-oxo-2,3,4,5-tetrahydro-1H-benzo[e][1,4]diazepin-8-ylamino)-5-chloro-pyrimidin-4-ylamino]-N-ethyl-benzamide] are less than 100 nM and 1000 to 10000 nM.
Consider `COc1ccc2c(c1Nc1ncc(Cl)c(N[C@@H]3CCCC[C@H]3NS(C)(=O)=O)n1)CN(Cc1ccccc1)CC(=O)N2` [Example 1654, N-{(1R,2R)-2-[2-(4-Benzyl-7-methoxy-2-oxo-2,3,4,5-tetrahydro-1H-benzo[e][1,4]diazepin-6-ylamino)-5-chloro-pyrimidin-4-ylamino]-cyclohexyl}-methanesulfonamide], for which the values for the IC50 in test [1] and in test [2] were 1000 to 10000 nM and greater than 10000 nM, respectively.
In the same order, the values of `COc1cc2c(cc1Nc1ncc(Cl)c(N[C@@H]3CCCC[C@H]3NS(C)(=O)=O)n1)NC(=O)CNC2` [Example 1655, N-{(1R,2R)-2-[5-Chloro-2-(7-methoxy-2-oxo-2,3,4,5-tetrahydro-1H-benzo[e][1,4]diazepin-8-ylamino)-pyrimidin-4-ylamino]-cyclohexyl}-methanesulfonamide] are less than 100 nM and greater than 10000 nM.
In the same order, the values of `COc1cc2c(cc1Nc1ncc(Cl)c(Nc3ccccc3S(=O)(=O)N(C)C)n1)N(CC(=O)N(C)C)C(=O)CN(CC(=O)N(C)C)C2` [Example 1656, 2-{8-[5-Chloro-4-(2-dimethylsulfamoyl-phenylamino)-pyrimidin-2-ylamino]-1-dimethylcarbamoylmethyl-7-methoxy-2-oxo-1,2,3,5-tetrahydro-benzo[e][1,4]diazepin-4-yl}-N,N-dimethyl-acetamide] are 100 to 1000 nM and greater than 10000 nM.
In the same order, the values of `COc1cc2c(cc1Nc1ncc(Cl)c(N[C@@H]3CCCC[C@H]3NS(C)(=O)=O)n1)NC(=O)CN(C(C)=O)C2` [Example 1657, N-{(1R,2R)-2-[2-(4-Acetyl-7-methoxy-2-oxo-2,3,4,5-tetrahydro-1H-benzo[e][1,4]di-azepin-8-ylamino)-5-chloro-pyrimidin-4-ylamino]-cyclohexyl}-methanesulfonamide] are less than 100 nM and greater than 10000 nM.
`CCN1CC(=O)Nc2cc(Nc3ncc(Cl)c(N[C@@H]4CCCC[C@H]4NS(C)(=O)=O)n3)c(OC)cc2C1` [Example 1658, N-{(1R,2R)-2-[5-Chloro-2-(4-ethyl-7-methoxy-2-oxo-2,3,4,5-tetrahydro-1H-benzo[e][1,4]diazepin-8-ylamino)-pyrimidin-4-ylamino]-cyclohexyl}-methane-sulfonamide]: the IC50 in test [1] was less than 100 nM; in test [2], greater than 10000 nM.
In the same order, the values of `CCN1CC(=O)Nc2cc(Nc3ncc(Cl)c(Nc4ccccc4S(=O)(=O)N(C)C)n3)c(OC)cc2C1` [Example 1659, 2-[5-Chloro-2-(4-ethyl-7-methoxy-2-oxo-2,3,4,5-tetrahydro-1H-benzo[e][1,4]diazepin-8-ylamino)-pyrimidin-4-ylamino]-N,N-dimethyl-benzenesulfonamide] are less than 100 nM and greater than 10000 nM.
Turning to `CCN1CC(=O)Nc2cc(Nc3ncc(Cl)c(Nc4ccccc4S(=O)(=O)C(C)C)n3)c(OC)cc2C1` [Example 1660, 8-{5-Chloro-4-[2-(propane-2-sulfonyl)-phenylamino]-pyrimidin-2-ylamino}-4-ethyl-7-methoxy-1,3,4,5-tetrahydro-benzo[e][1,4]diazepin-2-one], the IC50 in test [1] was less than 100 nM; in test [2] it was greater than 10000 nM.
With `CCN1CC(=O)Nc2cc(Nc3ncc(Cl)c(Nc4ccc(N5CCOCC5)cc4OC)n3)c(OC)cc2C1` [Example 1661, 8-[5-Chloro-4-(2-methoxy-4-morpholin-4-yl-phenylamino)-pyrimidin-2-ylamino]-4-ethyl-7-methoxy-1,3,4,5-tetrahydro-benzo[e][1,4]diazepin-2-one], the IC50 is less than 100 nM in test [1] and greater than 10000 nM in test [2].
In the same order, the values of `CCN1CC(=O)Nc2cc(Nc3ncc(Cl)c(Nc4ccc(OC)cc4-n4cccn4)n3)c(OC)cc2C1` [Example 1662, 8-[5-Chloro-4-(4-methoxy-2-pyrazol-1-yl-phenylamino)-pyrimidin-2-ylamino]-4-ethyl-7-methoxy-1,3,4,5-tetrahydro-benzo[e][1,4]diazepin-2-one] are less than 100 nM and greater than 10000 nM.
The corresponding values for `CCN1CC(=O)Nc2cc(Nc3ncc(Cl)c(N[C@H]4[C@@H](C(N)=O)[C@@H]5C=C[C@H]4C5)n3)c(OC)cc2C1` [Example 1663, (1S,2S,3R,4R)-3-[5-Chloro-2-(4-ethyl-7-methoxy-2-oxo-2,3,4,5-tetrahydro-1H-benzo[e][1,4]diazepin-8-ylamino)-pyrimidin-4-ylamino]-bicyclo-[2.2.1]hept-5-ene-2-carboxylic acid amide] are less than 100 nM and greater than 10000 nM.
The corresponding values for `COCCN1CC(=O)Nc2cc(Nc3ncc(Cl)c(N[C@@H]4CCCC[C@H]4NS(C)(=O)=O)n3)c(OC)cc2C1` [Example 1664, N-(1R,2R)-(2-{5-Chloro-2-[7-methoxy-4-(2-methoxy-ethyl)-2-oxo-2,3,4,5-tetrahydro-1H-benzo[e][1,4]diazepin-8-ylamino]-pyrimidin-4-ylamino}-cyclohexyl)-methanesulfonamide] are less than 100 nM and greater than 10000 nM.
`COCCN1CC(=O)Nc2cc(Nc3ncc(Cl)c(N[C@H]4[C@@H](C(N)=O)[C@@H]5C=C[C@H]4C5)n3)c(OC)cc2C1` [Example 1665, (1S,2S,3R,4R)-3-{5-Chloro-2-[7-methoxy-4-(2-methoxy-ethyl)-2-oxo-2,3,4,5-tetrahydro-1H-benzo[e][1,4]diazepin-8-ylamino]-pyrimidin-4-ylamino}-bicyclo[2.2.1]hept-5-ene-2-carboxylic acid amide]: the IC50 is less than 100 nM in test [1] and greater than 10000 nM in test [2].
